Molecules are shown by their SMILES.

One assay relates to MIA PaCa-2 cell line. The assay can be described thus: 3D cell growth assay (CellTiter-Glo), MIA PaCa-2. The class given is cell-based. The settings on record: Homo sapiens, MIA PaCa-2, 144 h, MIA PaCa-2 cell line, 6 days, 3D cell culture; read-out: 3D growth inhibition GI50. The procedure:
MIA PaCa-2 (ATCC), NCI-H358 (ATCC), NCI-H23 (ATCC), SW837 and A549 (ATCC) cells were plated in round bottom 96-well spheroid microplates (Corning, 4520) at 3000 cells/well in 90 ul of RPMI growth medium containing 10% FBS and 1% Penicillin Streptomycin. Cells were incubated at 37° C. overnight. The following day, the test compound was administered to the cells by using 10× compound stock solution prepared in growth medium at various concentrations. After administration of the compound, cells were then incubated at 37° C. for 6 days. Before CellTiter-Glo assay, the plates were equilibrated at room temperature for approximately 10 minutes. 100 ul of CellTiter-Glo® Reagent (Promega, G7573) was added to each well. The plates were then incubated at room temperature for 10 minutes and luminescence was recorded by EnSpire plate reader (PerkinElmer). Table 6 illustrates growth inhibition (G150) by exemplary compounds 1-10 of the present disclosure in a MIA PaCa-2 cell line 6 days after administration in 3D cell culture. A: >0.1 nM and <1 nM; B: >=1 nM and <10 nM; C: >=10 nM and <100 nM; D: >100 nM.
For orientation: Cellular ATP, detected with luciferase, serves as a proxy for viable cell number.

For assay [1], the target named is T1, KRAS-G12C mutant (Homo sapiens, UniProt P01116, G12C). As to the kind of experiment: Gel shift assay (SDS-PAGE) for covalent modification of KRAS G12C. Type of assay: binding. The note with it: 0.5 μM compound, 1 μM GDP-bound KRAS G12C, 25° C., 5 minutes, shift indicative of covalent cysteine conjugation. On the procedure: 0.5 μM compounds were incubated with 1 μM GDP-bound untagged KRAS (G12C or wild type) proteins at 25° C. for 5 minutes in 40 μl reaction buffer (50 mM Tris, pH 7.5, 100 mM NaCl, 1 mM MgCl2, 1 mM DTT). The reactions were quenched with 10 μI SDS-PAGE sample loading buffer (250 mM Tris-HCl, pH 6.8, 10% SDS, 0.5% bromophenol blue, 50% glycerol and 50 mM DTT) and then analyzed via SDS-PAGE using 4%-20% gradient polyacrylamide gel followed by Coomassie blue stain.
FIG. 1 illustrates mobility change of KRAS-G12C mutant or wild type proteins on SDS-PAGE after 5 minutes of coincubation at 25° C. with exemplary compounds of the present disclosure, indicative of covalent cysteine conjugation.
Table 3 summarizes molecular weight shift of KRAS-G12C mutant on SDS-PAGE after 5 mins of coincubation at 25° C. with exemplary compounds of the present disclosure, indicative of covalent cysteine conjugation.

The target in assay [2] is T1, KRAS-G12C mutant. The assay can be described thus: TR-FRET assay of SOS1-assisted KRAS GDP/GTP exchange. Type of assay: biochemical. On the procedure:
GDP form of 6*His tagged KRAS-G12C was diluted to 40 nM and incubated with 8 nM LanthaScreen™ Elite Terbium-anti-HIS Antibody (Thermo, catalog number PV5863) in reaction buffer containing 20 mM Tris, pH 7.5, 100 mM NaCl, 1 mM DTT, 0.1% Tween20, 0.05% BSA, 2% DMSO, 1 mM MgCl2. After 1 hour-incubation at 4° C., proteins were placed in 384 well plate (PerkinElmer, PROXIPLATE-384 PLUS). Then compounds with different concentrations were added to the proteins. BODIPY labeled GTP (Thermo, catalog number G12411) and SOS-1 (or reaction buffer as control) were then added to reactions at 200 nM and 1 μM to trigger the exchange of GDP to BODIPY-GTP. TR-FRET emission signals were determined at 520 nm and 620 nm on a Envision® Multilabel Plate Reader (PerkinElmer) using a 337 nm laser as light source. All data were analyzed and plotted using Graph Pad Prism software (version 8.0.1). Raw TR-FRET data were converted to percentage of inhibition (relative to DMSO) using the following equations: […]
b) For a given test compound concentration X:
Signal (X)=Emission ratio (SOS-1 & GTP)—Emission ratio (buffer & GTP)
c) Percentage of inhibition at concentration X=[1−Signal(X)/Signal (DMSO)]*100%
The […] values were determined by nonlinear regression of plots of [inhibitor] vs. percentage of inhibition with variable slope. Table 4 summarizes inhibition of SOS1-assisted GDP/GTP exchanging activity of KRAS-G12C mutant with exemplary compounds of the present disclosure.

The subject of assay [3] is phospho-ERK1/2 (Thr202/Tyr204) in MIA PaCa-2 cell line. As to the kind of experiment: pERK and ERK Western blot analysis, MIA PaCa-2. The class given is cell-based. The settings on record: Homo sapiens; MIA PaCa-2 cell line, 4 hours after incubation; read-out: 2D pERK IC50. The procedure:
MIA PaCa-2 (ATCC), NCI-H358 (ATCC), NCI-H23 (ATCC), SW837 and A549 (ATCC) cells were plated in 24-well plates at 2×10^5cells/well in RPMI growth medium containing 10% FBS and 1× Penicillin Streptomycin. They were then incubated at 37° C. overnight. The following day, the test compound was administered to the cells by using 1000× compound stock solution prepared in DMSO at various concentrations. After administration of the compound, the cells were then incubated at 37° C. for 4 hours. Upon completion, the cells were washed with PBS and protein was collected in Laemmli sample buffer (1×; VWR International). Proteins in cell lysate were separated by SDS-PAGE and transferred to Odyssey nitrocellulose membranes (Licor) with iblot® dry blotting transfer system (ThermoFisher). Nonspecific binding was blocked by incubating membranes with Intercept Blocking Buffer (Licor) for 1 hour at room temperature with gentle shaking. The membranes were then incubated overnight at 4° C. with primary antibodies rabbit anti-phospho p44/42 MAPK (Erk1/2) (1:2,000, Cell Signaling, 4370) and mouse anti-p44/42 MAPK (Erk1/2) (1:1,000, Cell Signaling, 4696) diluted in Intercept Blocking Buffer containing 0.1% Tween 20. After washing 3 times with TBS-T, the membranes were incubated with IRDye® 800CW goat anti-rabbit IgG (1:20,000, Licor) or IRDye® 680CW goat anti-mouse IgG (1:20,000, Licor) for 1 hour. After TBS-T washes, membranes were rinsed in TBS and scanned on Odyssey® CLx Imaging System (Licor). The bands were quantified using Image Studio™ Software (Licor).
For orientation: A western blot detects proteins with antibodies after separation by electrophoresis.

The term GI50 denotes the concentration that inhibits growth by half. A word on the IC50: it is the concentration that gives 50% inhibition. With `C=C(F)C(=O)N1CCN(c2nc(OCC34CCCN3CCC4)nc3c2CO[C@H](c2cccc4c2CCCC4)C3)C[C@@H]1CC#N` [Compound 69, 2-((S)-1-(2-fluoroacryloyl)-4-((S)-2-((tetrahydro-1H-pyrrolizin-7a(5H)-yl)methoxy)-7-(5,6,7,8-tetrahydronaphthalen-1-yl)-7,8-dihydro-5H-pyrano[4,3-d]pyrimidin-4-yl)piperazin-2-yl)acetonitrile], in the assay on MIA PaCa-2 cell line, the GI50 fell in the range of 1 to 10 nM. Also, the “KRAS-G12C molecular weight shift” value at KRAS-G12C mutant [1] is “Yes”. The half-inhibitory concentration (IC50) is 20 nM against KRAS-G12C mutant [2] and 10 to 100 nM in assay [3].
For `C=C(F)C(=O)N1CCN(c2nc(OCC3(CN4CCCC4)CC3)nc3c2COC(c2cccc4cccc(Cl)c24)C3)C[C@@H]1CC#N` (mixture of isomers) [Compound 71, 2-((2S)-4-(7-(8-chloronaphthalen-1-yl)-2-((1-(pyrrolidin-1-ylmethyl)cyclopropyl)methoxy)-7,8-dihydro-5H-pyrano[4,3-d]pyrimidin-4-yl)-1-(2-fluoroacryloyl)piperazin-2-yl)acetonitrile] the same measures were 10 to 100 nM, “Yes”, 209 nM and 10 to 100 nM.
The corresponding values for `C=C(F)C(=O)N1CCN(c2nc(OCC34CCCN3CCC4)nc3c2COC(c2cccc4cccc(Cl)c24)C3)C[C@@H]1CC#N` (stereo partly drawn) [Compound 53, 2-((2S)-4-(7-(8-chloronaphthalen-1-yl)-2-((tetrahydro-1H-pyrrolizin-7a(5H)-yl)methoxy)-7,8-dihydro-5H-pyrano[4,3-d]pyrimidin-4-yl)-1-(2-fluoroacryloyl)piperazin-2-yl)acetonitrile] are 1 to 10 nM, “Yes”, 45 nM and 1 to 10 nM.
As for `C=C(F)C(=O)N1CCN(c2nc(OCC34CCCN3CCC4)nc3c2C(C)OC(c2cccc4cccc(Cl)c24)C3)C[C@@H]1CC#N` (stereo partly drawn) [Compound 59, 2-((2S)-4-(7-(8-chloronaphthalen-1-yl)-5-methyl-2-((tetrahydro-1H-pyrrolizin-7a(5H)-yl)methoxy)-7,8-dihydro-5H-pyrano[4,3-d]pyrimidin-4-yl)-1-(2-fluoroacryloyl)piperazin-2-yl)acetonitrile], the concentration for 50% growth inhibition (GI50) in the assay with MIA PaCa-2 cell line lay in the range of 1 to 10 nM. The “KRAS-G12C molecular weight shift” value at KRAS-G12C mutant [1] is “Yes”. In addition, the IC50 against KRAS-G12C mutant [2] is 60 nM; in assay [3], 10 to 100 nM.
With `C=C(F)C(=O)N1CCN(c2nc(OCC3(CN4CCCC4)CC3)nc3c2CO[C@@H](c2cccc4cccc(Cl)c24)C3)C[C@@H]1CC#N` (single isomer, unassigned) [Compound 72], the GI50 with MIA PaCa-2 cell line is over 100 nM. Also, on KRAS-G12C mutant [1], the “KRAS-G12C molecular weight shift” value was “No”. For the same compound, the IC50 against KRAS-G12C mutant [2] was 11600 nM; in assay [3], over 100 nM.
Take `C=C(F)C(=O)N1CCN(c2nc(OCC34CCCN3CCC4)nc3c2[C@H](C)O[C@H](c2cccc4c2CCCC4)C3)C[C@@H]1CC#N` [Compound 61, 2-((S)-1-(2-fluoroacryloyl)-4-((5S,7S)-5-methyl-2-((tetrahydro-1H-pyrrolizin-7a(5H)-yl)methoxy)-7-(5,6,7,8-tetrahydronaphthalen-1-yl)-7,8-dihydro-5H-pyrano[4,3-d]pyrimidin-4-yl)piperazin-2-yl)acetonitrile]: the concentration for 50% growth inhibition (GI50) in the assay with MIA PaCa-2 cell line is 10 to 100 nM. For the same compound, the “KRAS-G12C molecular weight shift” value on KRAS-G12C mutant [1] is reported as “Yes”. Further, the 50% inhibitory concentration (IC50) was 78 nM against KRAS-G12C mutant [2] and 10 to 100 nM in assay [3].
Regarding `C=CC(=O)N1CCN(c2nc(OC[C@@H]3C[C@H](F)CN3C)nc3c2CO[C@H](c2cccc4ccccc24)C3)C[C@@H]1CC#N` [Compound 9, 2-((S)-1-acryloyl-4-((S)-2-(((2S,4S)-4-fluoro-1-methylpyrrolidin-2-yl)methoxy)-7-(naphthalen-1-yl)-7,8-dihydro-5H-pyrano[4,3-d]pyrimidin-4-yl)piperazin-2-yl)acetonitrile], in the assay with MIA PaCa-2 cell line, the GI50 lay within 10 to 100 nM. The half-inhibitory concentration (IC50) against KRAS-G12C mutant [2] is 1 nM; in assay [3] it was 10 to 100 nM.
Take `C=CC(=O)N1CCN(c2nc(OC[C@@H]3C[C@@H](F)CN3C)nc3c2COC(c2cccc4ccccc24)C3)C[C@@H]1CC#N` (stereo partly drawn) [Compound 8, 2-((2S)-1-acryloyl-4-(2-(((2S,4R)-4-fluoro-1-methylpyrrolidin-2-yl)methoxy)-7-(naphthalen-1-yl)-7,8-dihydro-5H-pyrano[4,3-d]pyrimidin-4-yl)piperazin-2-yl)acetonitrile]: the 50% growth inhibitory concentration (GI50) in the assay with MIA PaCa-2 cell line is 10 to 100 nM. Moreover, the half-maximal inhibitory concentration (IC50) on KRAS-G12C mutant [2] is 238 nM; in assay [3], 1 to 10 nM.
The corresponding values for `C=CC(=O)N1CCN(c2nc(OC[C@@H]3CCCN3C)nc3c2CO[C@H](c2cccc4ccccc24)C3)C[C@@H]1CC#N` [Compound 4, 2-((S)-1-acryloyl-4-((S)-2-(((S)-1-methylpyrrolidin-2-yl)methoxy)-7-(naphthalen-1-yl)-7,8-dihydro-5H-pyrano[4,3-d]pyrimidin-4-yl)piperazin-2-yl)acetonitrile] are 1 to 10 nM, 49 nM and 1 to 10 nM.
The corresponding values for `C=CC(=O)N1CCN(c2nc(OC[C@@H]3CCCN3C)nc3c2CO[C@H](c2cccc4cccc(Cl)c24)C3)C[C@@H]1CC#N` [Compound 7, 2-((S)-1-acryloyl-4-((S)-7-(8-chloronaphthalen-1-yl)-2-(((S)-1-methylpyrrolidin-2-yl)methoxy)-7,8-dihydro-5H-pyrano[4,3-d]pyrimidin-4-yl)piperazin-2-yl)acetonitrile] are 1 to 10 nM, 19 nM and 0.1 to 1 nM.
Take `C=CC(=O)N1CCN(c2nc(OC[C@@H]3CCCN3C)nc3c2COC(c2cccc4ccccc24)C3)C[C@@H]1CC#N` (stereo partly drawn) [Compound 2, 2-((2S)-1-acryloyl-4-(2-(((S)-1-methylpyrrolidin-2-yl)methoxy)-7-(naphthalen-1-yl)-7,8-dihydro-5H-pyrano[4,3-d]pyrimidin-4-yl)piperazin-2-yl)acetonitrile]: the 50% growth inhibitory concentration (GI50) in the assay with MIA PaCa-2 cell line was in the range of 1 to 10 nM. Moreover, the values for the half-inhibitory concentration (IC50) (at KRAS-G12C mutant [2]; in assay [3]) were 77 nM and 10 to 100 nM, respectively.

The values are drawn from patent US20220112204A1, “SUBSTITUTED DIHYDROPYRANOPYRIMIDINE COMPOUNDS AS KRAS INHIBITORS” (ACCUTAR BIOTECHNOLOGY INC., priority 2020, published 2022).
